Data reported in US12521398B2, “Composition for treating synucleinopathies” (STANDIGM INC., priority 2019, dated 2026).
Where two headings read alike, the source gives them in different places. One block for each molecule: values may come before it.

Assays:
Assay type in all cases: cell-based
SH-SY5Y cell line = test: Cytotoxicity, cell viability by MTT test; conditions: 24 hours
Protocol: An SH-SY5Y cell line (ATCC) was used to confirm the cytotoxicity of efavirenz.
The SH-SY5Y cell line was seeded in a 96-well plate, cultured, treated with an increasing concentration (0, 5, 25 μM) of efavirenz, and then incubated at a constant temperature for 24 hours. Thereafter, cell viability was measured using an MTT test method. Cells treated with 0 μM efavirenz were used as the control. **P<0.01 against the control.
Also, in the next experiment, the cytotoxicities of chlorhexidine (N,N″″-1,6-hexanediylbis[N′-(4-chlorophenyl)(imidocarbon imidic diamide)]), naphazoline(2-(1-naphthylmethyl)-4,5-dihydro-1H-imidazole), and tenofovir (({[(2R)-1-(6-amino-9H-purin-9-yl)-[…]]oxy}methyl)phosphonic acid) to be used as reference drugs were tested in the same manner as in the cytotoxicity experiment of efavirenz. Cells were treated with chlorhexidine at a concentration of 0, 10, 100 μM, treated with naphazoline at a concentration of 0, 100, 200 μM, and treated with tenofovir at a concentration of 0, 20, 30 μM, and cells treated with each control drug at a concentration of 0 μM was used as the control. *P<0.05, ***P<0.001 against the control.

α-synuclein = molecular target: T1, α-synuclein (Homo sapiens, UniProt P37840); test: Dual chamber assay, cell-to-cell transmission of α-synuclein in SH-SY5Y cells; conditions: 12 hours
T1 construct: expressed in transfected cells; host or cells: SH-SY5Y
Protocol: A slide glass was included in the plate to stain the cells after the cell culture.
In an insert well of the 12-well plate as the apical chamber, an SH-SY5Y cell line in which α-synuclein was over-expressed was seeded at a density of 4×10^4 cells/well, and in the 12-well plate as the basal chamber, an SH-SY5Y cell line in which α-synuclein was not over-expressed was seeded at a density of 4×10^4 cells/well and they were incubated at a constant temperature. The next day, the insert well was transferred to a place where the 12-well plate was placed to form a dual chamber. Thereafter, the chamber was treated with DMSO or 5 μM efavirenz and incubated at a constant temperature for 12 hours. The SH-SY5Y cells in the plate in which the chamber was treated with DMSO were used as the control. Then, the SH-SY5Y cells in the plate were subjected to immunostaining and observed using a confocal microscope. During the immunostaining, α-synuclein was stained red, and the nuclei were stained blue. Also, fluorescence intensities of α-synuclein in the control and the cells treated with efavirenz were compared. A scale bar represents 20 μm. **P<0.01, ***P<0.001 against the control. […] Also, when the fluorescence intensities of the immunostained α-synuclein were compared, the fluorescence intensity in the cells treated with efavirenz decreased by approximately 80%, compared with that of the control (FIG. 2A).
In the case of the naphazoline-administered group, the cells treated with PBS were used as the control, and the cells treated with DMSO were used as the control in the case of the chlorhexidine- and tenofovir-administered groups. A scale bar represents 20 μm. **P<0.01 and ***P<0.001 against the control.

A53T α-synuclein = molecular target: T2, A53T α-synuclein (Homo sapiens, UniProt P37840, A53T); test: Co-culture assay of A53T EGFP and A53T mcherry SH-SY5Y cells, aggregation of α-synuclein
T2 construct: expressed in transfected cells; host or cells: SH-SY5Y (lentiviral transduction)
Protocol: A degeneration process of converting monomeric α-synuclein into aggregates may mainly cause Parkinson's disease. Therefore, it was tested whether efavirenz is involved in the propagation process of the over-expressed monomeric A53T α-synuclein to adjacent cells, which is converting the over-expressed monomeric α-synuclein into aggregates.
For this purpose, an SH-SY5Y cell line (A53T EGFP cells) in which EGFP-labeled A53T α-synuclein was over-expressed and an SH-SY5Y cell line (A53T mcherry cells) in which mcherry-labeled A53T α-synuclein was over-expressed were prepared using a lentivirus. Thereafter, the A53T EGFP cells and the A53T mcherry cells were mixed to prepare co-cultured cells. Then, the co-cultured cells were treated with DMSO or 5 μM efavirenz, and co-cultured in the presence of 50 μM retinoic acid (RA) for 5 days. The co-cultured cells treated with DMSO were used as the control. At 5 days of the co-culturing, the aggregated α-synuclein (inclusion body-positive cells) was confirmed using a confocal microscope (the rightmost image of fluorescence images shown in FIG. 3A). Also, each of a combined distribution of EGFP and mcherry in the A53T EGFP cells and a combined distribution of mcherry and EGFP in the A53T mcherry cells was confirmed. […] In the rightmost image of the fluorescence images of FIG. 3A, dots indicated in yellow represent the combining of mcherry and EGFP signals in the cells. In the rightmost image of the fluorescence images of FIG. 3A (a diagram in which EGFP+mcherry signals were combined), the dots indicated in yellow were counted to calculate ratios of the dots to the whole cells, and then plotted on a bar graph. A scale bar represents 20 μm, and ***P<0.001 against the control.
Also, to test whether chlorhexidine, naphazoline, and tenofovir were involved in the process of moving the over-expressed monomeric A53T α-synuclein to adjacent cells to convert the over-expressed monomeric α-synuclein into aggregates, the cells were treated with either 10 μM chlorhexidine, 100 μM naphazoline, or 20 μM tenofovir, and then tested in the same manner as in the experiment for efavirenz. However, in the case of the naphazoline-administered group, the cells treated with PBS were used as the control, and the cells treated with DMSO were also used as the control in the case of the chlorhexidine- and tenofovir-administered groups. A scale bar represents 20 μm.

[1] = 20 μM, 5 days co-culture, DMSO control
[2] = 10 μM, 5 days co-culture, DMSO control

Compound: C[C@H](Cn1cnc2c(N)ncnc21)OCP(=O)(O)O [tenofovir]
cell viability compared with the control (SH-SY5Y cell line; 20 μM): not changed significantly
cell viability compared with the control (SH-SY5Y cell line; 30 μM): significant decrease
cell-to-cell transmission of α-synuclein compared with the control (fluorescence image) (α-synuclein; 20 μM, DMSO control): remarkably increased
amount of aggregated α-synuclein compared with the control cells (A53T α-synuclein; [1]): increased or were not significantly different
distribution of α-synuclein compared with the control cells (A53T α-synuclein; [1]): increased or were not significantly different

cell-to-cell transmission of α-synuclein compared with the control (fluorescence image) (α-synuclein; 100 μM, PBS control): remarkably increased
Compound: c1ccc2c(CC3=NCCN3)cccc2c1 [naphazoline, 2-(1-naphthylmethyl)-4,5-dihydro-1H-imidazole]
distribution of α-synuclein compared with the control cells (A53T α-synuclein): increased or were not significantly different
amount of aggregated α-synuclein compared with the control cells (A53T α-synuclein; 100 μM, 5 days co-culture, PBS control): increased or were not significantly different

cell-to-cell transmission of α-synuclein compared with the control (fluorescence image) (α-synuclein; 10 μM, DMSO control): remarkably increased
Compound: [H]/N=C(\N/C(=N/[H])NCCCCCCNC(=N)NC(=N)Nc1ccc(Cl)cc1)Nc1ccc(Cl)cc1 [chlorhexidine, N,N″″-1,6-hexanediylbis[N′-(4-chlorophenyl)(imidocarbonimidic diamide)]]
amount of aggregated α-synuclein compared with the control cells (A53T α-synuclein; [2]): increased or were not significantly different
distribution of α-synuclein compared with the control cells (A53T α-synuclein; [2]): increased or were not significantly different

decrease of fluorescence intensity of immunostained α-synuclein compared with the control (α-synuclein; 5 μM, DMSO control): approximately 80%
Compound: O=C1Nc2ccc(Cl)cc2[C@@](C#CC2CC2)(C(F)(F)F)O1 [efavirenz, (4S)-6-chloro-(cyclopropylethynyl)-1,4-dihydro-4-(trifluoromethyl)-2H-3,1-benzoxazin-2-one]
